Among the data in ChEMBL document CHEMBL3046800, “Tricyclic cyanoguanidines: synthesis, site of action and insecticidal activity of a novel class of reversible acetylcholinesterase inhibitors” (2002) are Activity, inhibition and LC80 values, retold here.

Active and inactive are the calls of the source. No cut-off for these calls is given here.

One may read the inhibition as the relative decrease from the control value, in per cent.

Assay [1] has as its target Acetylcholinesterase (Leptinotarsa decemlineata) (UniProt Q27677). The assay can be described thus: Irreversible inhibition of Diabrotica undecimpunctata (Southern corn rootworm) acetylcholinesterase using acetylcholine iodine as substrate assessed as activity remaining at 1 uM incubated for 30 min prior to substrate addition by size exclusion chromatrography method. (SEC sorts molecules by how far they enter the pores of the column.)

Assay [2] shares this target. Briefly: Irreversible inhibition of Diabrotica undecimpunctata (Southern corn rootworm) acetylcholinesterase using acetylcholine iodine as substrate at 300 nM measured after 120 min by DTNB-based colorimetric analysis.
For assay [3] the target is unchanged. Briefly: Inhibition of Diabrotica undecimpunctata (Southern corn rootworm) acetylcholinesterase using acetylcholine iodine as substrate at 300 nM measured after 30 min by DTNB-based colorimetric analysis.
In another assay the test system is Nephotettix cincticeps. Briefly: Insecticidal activity against Nephotettix cincticeps (green rice leafhopper) infested in compound-pretreated rice seedling measured 6 days post-infestation. Format: functional.
The subject of the next assay is Nilaparvata lugens. The assay can be described thus: Insecticidal activity against Nilaparvata lugens (brown planthopper) infested in compound-pretreated rice seedling measured 6 days post-infestation. Format: functional.
The target of assay [4] is Acetylcholinesterase (Leptinotarsa decemlineata) (UniProt Q27677). Briefly: Reversible inhibition of Diabrotica undecimpunctata (Southern corn rootworm) acetylcholinesterase using acetylcholine iodine as substrate at 10 uM incubated for 30 min prior to substrate addition by size exclusion chromatrography method.
In assay [5] the target is Ace-orthologous acetylcholinesterase (Nephotettix cincticeps) (UniProt Q9NJH6). Briefly: Reversible inhibition of Nephotettix cincticeps (green rice leafhopper) acetylcholinesterase using acetylcholine iodine as substrate at 2 uM measured up to 120 min by DTNB-based colorimetric analysis.
Assay [6] addresses Acetylcholinesterase (Leptinotarsa decemlineata) (UniProt Q27677). Briefly: Reversible inhibition of Diabrotica undecimpunctata (Southern corn rootworm) acetylcholinesterase using acetylcholine iodine as substrate at 2 uM measured up to 120 min by DTNB-based colorimetric analysis.
In another assay the test system is Peregrinus maidis. The assay can be described thus: Insecticidal activity against Peregrinus maidis (corn hopper) infested compound-pretreated corn seed measured 6 days post-infestation. It is filed as functional.

Sequence of Acetylcholinesterase (Leptinotarsa decemlineata) (Q27677 whole entry): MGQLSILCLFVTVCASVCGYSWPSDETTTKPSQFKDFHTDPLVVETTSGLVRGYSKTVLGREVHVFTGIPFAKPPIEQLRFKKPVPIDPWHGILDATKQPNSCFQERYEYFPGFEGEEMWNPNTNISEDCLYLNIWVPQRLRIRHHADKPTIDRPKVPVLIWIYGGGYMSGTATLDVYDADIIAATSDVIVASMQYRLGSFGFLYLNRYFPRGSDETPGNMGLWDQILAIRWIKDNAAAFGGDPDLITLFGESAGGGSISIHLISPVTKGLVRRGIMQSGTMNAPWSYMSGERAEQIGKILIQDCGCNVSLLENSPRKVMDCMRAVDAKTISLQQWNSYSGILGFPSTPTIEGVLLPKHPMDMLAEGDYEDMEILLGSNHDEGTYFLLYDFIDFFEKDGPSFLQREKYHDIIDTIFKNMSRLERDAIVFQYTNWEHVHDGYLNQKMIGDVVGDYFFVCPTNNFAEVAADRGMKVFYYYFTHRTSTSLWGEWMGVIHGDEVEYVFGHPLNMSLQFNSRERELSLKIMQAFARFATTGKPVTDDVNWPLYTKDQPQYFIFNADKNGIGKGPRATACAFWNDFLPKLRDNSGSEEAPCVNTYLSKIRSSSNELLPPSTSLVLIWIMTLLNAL
Sequence of Ace-orthologous acetylcholinesterase (Nephotettix cincticeps) (Q9NJH6 20-677 limits assumed): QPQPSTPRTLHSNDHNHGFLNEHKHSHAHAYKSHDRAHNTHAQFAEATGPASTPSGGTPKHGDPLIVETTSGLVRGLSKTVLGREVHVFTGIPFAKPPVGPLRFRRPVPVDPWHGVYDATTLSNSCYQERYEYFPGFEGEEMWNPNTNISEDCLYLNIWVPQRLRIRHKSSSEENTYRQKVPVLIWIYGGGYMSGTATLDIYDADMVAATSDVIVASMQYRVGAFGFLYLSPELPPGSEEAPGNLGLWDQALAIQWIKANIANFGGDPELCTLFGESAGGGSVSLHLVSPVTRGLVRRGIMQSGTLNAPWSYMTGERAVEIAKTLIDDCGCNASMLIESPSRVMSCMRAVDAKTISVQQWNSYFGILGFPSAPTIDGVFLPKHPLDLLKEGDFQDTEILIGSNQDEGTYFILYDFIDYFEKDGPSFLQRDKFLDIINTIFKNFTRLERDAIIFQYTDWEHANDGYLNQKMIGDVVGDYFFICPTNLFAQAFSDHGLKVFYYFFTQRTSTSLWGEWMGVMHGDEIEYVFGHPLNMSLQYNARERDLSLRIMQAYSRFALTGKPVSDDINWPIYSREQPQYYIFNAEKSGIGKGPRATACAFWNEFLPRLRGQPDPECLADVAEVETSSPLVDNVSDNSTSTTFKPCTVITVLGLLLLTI

As to `CCOP(=O)(OCC)Oc1ccc([N+](=O)[O-])cc1` [PARAOXON], the Activity in assay [1] is less than 20%. Also, the values for the inhibition in assay [2] and in [3] were 100% and 50%, respectively. Also, the LC80 with Nephotettix cincticeps is more than 100 ppm; with Nilaparvata lugens, less than 10 ppm.
Regarding `CC12CC(N/C(=N/C#N)N1)c1ccccc1O2` (stereo unspecified), the inhibition entry in assay [4] is “Active”. Further, the inhibition entry in [5] is “inactive”. The same molecule yielded an inhibition in assay [6] of 50%. The LC80 in the assay with Peregrinus maidis was more than 250 ppm; with Nephotettix cincticeps, more than 100 ppm; in the assay on Nilaparvata lugens it was less than 10 ppm.
